Experiments:
[1] = test system: spinal nerve ligation (SNL) model; test: Spinal nerve ligation (SNL) neuropathic pain model, von Frey paw withdrawal threshold; type: in vivo; details: SNL rats; for maximum possible effect (MPE), withdrawal threshold: 3 h after administration
Source text: The SNL model, also known as the Chung model, is a widely used animal model for studying neuropathic pain, a chronic pain condition resulting from nervous system damage. This model replicates human neuropathic pain, which can stem from nerve injuries due to conditions like diabetes, shingles, or spinal cord injury. In the SNL model, the L5 or L6 spinal nerve is surgically ligated to induce nerve injury, leading to the development of long-lasting neuropathic pain symptoms in the animal. Following the nerve injury, animals display pain-related behaviors that mirror those seen in human neuropathic pain conditions, such as allodynia and hyperalgesia. Behavioral assessments conducted 14 days after surgery evaluate the animal’s sensitivity to mechanical stimuli using Von Frey filaments to quantify pain responses and measure mechanical allodynia.
In this experiment, compound 29 was administered intraperitoneally at two different doses, 50 and 100 mg/kg, and its analgesic effects were assessed by measuring the 50% withdrawal threshold at multiple time points (1, 3, and 5 h post-administration) (Figure 3A). […]
Spinal nerve ligation (SNL) was performed following the method described by Kim and Chung. […] Following the surgery, the rats were returned to their cages and monitored during recovery.
Behavioral signs indicative of neuropathic pain (mechanical allodynia) were assessed in all rats for two weeks postoperatively. The paw withdrawal threshold (PWT) was measured using von Frey filaments (Stoelting, Wood Dale, IL, USA) and the up–down method. […] A brisk withdrawal or paw flinching was recorded as a positive response. […]
Figure 3 Antinociceptive effect of compound 29 on mechanical allodynia in SNL model rats. (A) The mechanical allodynia was induced by spinal nerve ligation and evaluated by measuring paw withdrawal thresholds in response to von Frey filament stimuli. […] The MPE was calculated using the following formula: MPE (%) = [(post-treated value − pre-treatment threshold) × 100]/(maximum possible threshold − pre-treatment threshold). Data are expressed as mean ± SEM. […]

[2] = target: T1, Transporter, Dopamine (DAT) (Homo sapiens, UniProt Q01959); test: Radioligand binding, [125I] RTI-55, Eurofins
T1 construct: host or cells: CHO-S cells

[3] = In vivo pharmacokinetic study; set-up: species or system Sprague–Dawley rats; details: rats; for AUC(0-inf) / AUC(0-t) / CL/F / Cmax / Tmax / half-life: male, Sprague-Dawley, rat, plasma
Protocol: The in vivo pharmacokinetics parameters of compound 29 were measured in rats over 24 h following intraperitoneal (IP) and oral (PO) administration (Figure 4). These experiments were conducted to evaluate the compound’s absorption, distribution, metabolism, and excretion profiles under different routes of administration. Male Sprague–Dawley rats (n = 3 per group, weight 200–250 g) were fasted overnight but had free access to water. All animal experiments were conducted in accordance with institutional guidelines. For intraperitoneal (IP) administration, compound 29 was dissolved in saline and DMSO, while for oral (PO) administration, the compound was suspended in 0.5% carboxymethyl cellulose (CMC). All solutions were freshly prepared and filtered before administration to ensure homogeneity. Compound 29 was administered at 5 mg/kg via intraperitoneal injection or at 10 mg/kg by oral gavage. […] Blood was collected into EDTA-coated tubes and centrifuged at 2000× g for 10 min at 4 °C to separate plasma. Plasma samples were stored at −80 °C until analysis. Before analysis, plasma samples were thawed on ice, and proteins were precipitated using acetonitrile containing an internal standard. The mixture was centrifuged, and the supernatant was collected for analysis. Plasma concentrations of compound 29 were determined using a validated LC-MS/MS method. […] Quantification was performed in Multiple Reaction Monitoring (MRM) mode using Xcalibur software (version 4.4). Pharmacokinetic parameters, including AUClast, AUCinf, Cmax, Tmax, t1/2, Cl/F, and Vd, were calculated using non-compartmental analysis (NCA) with Phoenix WinNonlin software 8.5.2 (Certara, Radnor, PA, USA).

[4] = target: CYP3A4 (Homo sapiens, UniProt P08684); test: in vitro; details: microsomes, pH 7.4
Chain of CYP3A4 (P08684 whole entry): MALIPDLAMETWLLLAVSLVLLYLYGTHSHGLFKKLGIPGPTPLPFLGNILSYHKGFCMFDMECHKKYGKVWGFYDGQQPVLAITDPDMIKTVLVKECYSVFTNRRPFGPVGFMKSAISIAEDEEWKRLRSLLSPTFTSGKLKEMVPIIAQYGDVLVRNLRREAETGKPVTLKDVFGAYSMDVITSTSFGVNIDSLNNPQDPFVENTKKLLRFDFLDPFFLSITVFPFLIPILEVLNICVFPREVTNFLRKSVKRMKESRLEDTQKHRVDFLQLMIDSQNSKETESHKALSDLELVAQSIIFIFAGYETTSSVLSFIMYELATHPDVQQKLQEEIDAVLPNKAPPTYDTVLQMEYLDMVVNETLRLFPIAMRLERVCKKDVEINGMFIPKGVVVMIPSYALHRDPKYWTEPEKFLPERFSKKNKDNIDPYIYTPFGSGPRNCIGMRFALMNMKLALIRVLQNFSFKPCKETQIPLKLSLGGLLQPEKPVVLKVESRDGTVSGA

T1 sequence (Q01959 whole entry): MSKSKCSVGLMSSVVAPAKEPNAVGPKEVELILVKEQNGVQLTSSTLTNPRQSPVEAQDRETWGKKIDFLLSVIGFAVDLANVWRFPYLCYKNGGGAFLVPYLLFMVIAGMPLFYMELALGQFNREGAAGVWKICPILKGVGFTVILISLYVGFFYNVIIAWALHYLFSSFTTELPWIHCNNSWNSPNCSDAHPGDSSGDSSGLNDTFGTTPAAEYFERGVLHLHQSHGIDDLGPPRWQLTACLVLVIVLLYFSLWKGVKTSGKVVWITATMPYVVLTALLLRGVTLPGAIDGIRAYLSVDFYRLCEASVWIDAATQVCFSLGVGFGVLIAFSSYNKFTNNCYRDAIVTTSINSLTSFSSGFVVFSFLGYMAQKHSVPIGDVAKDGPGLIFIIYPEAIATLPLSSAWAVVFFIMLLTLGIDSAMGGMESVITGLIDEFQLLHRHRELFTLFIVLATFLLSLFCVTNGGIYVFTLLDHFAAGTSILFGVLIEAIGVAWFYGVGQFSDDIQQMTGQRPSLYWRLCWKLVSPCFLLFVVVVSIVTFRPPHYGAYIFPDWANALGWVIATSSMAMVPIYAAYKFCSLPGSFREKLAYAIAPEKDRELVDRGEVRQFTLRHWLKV

Question: With `N#Cc1ccc2[nH]cc(C(=O)NCCN3CCN(c4ccc5ccccc5n4)CC3)c2c1` [Compound 29, 5-Cyano-N-(2-(4-(quinolin-2-yl)piperazin-1-yl)ethyl)-1H-indole-3-carboxamide] as the molecule, how does the “maximum possible effect (MPE), withdrawal threshold” value ([1]; 50 mg/kg intraperitoneal) read?
Answer: 24%

Question: And the “maximum possible effect (MPE), withdrawal threshold” value ([1]; 100 mg/kg intraperitoneal)?
Answer: 45%

Question: What about the “time of most pronounced analgesic effect (Tmax)” value ([1]; 50 and 100 mg/kg intraperitoneal) of the same molecule?
Answer: 3 h

Question: What about the “nH (Hill coefficient)” value ([2]; DAT) of the same molecule?
Answer: 0.88

Question: And the Ki ([2]; DAT, Cheng and Prusoff)?
Answer: 46 nM

Question: What about the IC50 ([2]; DAT, human recombinant CHO-S cells) of the same molecule?
Answer: 57 nM

Question: What about the “times more potent at DAT compared to vanoxerine” value ([2]; ratio of Ki values) of the same molecule?
Answer: 19

Question: And the AUC(0-inf) ([3]; IP, 5 mg/kg)?
Answer: 1380 ng·h/mL

Question: What about the AUC(0-t) ([3]; IP, 5 mg/kg) of the same molecule?
Answer: 1030 ng·h/mL

Question: What about the CL/F ([3]; IP, 5 mg/kg) of the same molecule?
Answer: 64.7 mL/min/kg

Question: And the Cmax ([3]; IP, 5 mg/kg)?
Answer: 208 ng/mL

Question: What about the Tmax ([3]; IP, 5 mg/kg) of the same molecule?
Answer: 2.83 h

Question: And the half-life ([3]; IP, 5 mg/kg)?
Answer: 3.49 h

Question: What about the AUC(0-inf) ([3]; PO, 10 mg/kg) of the same molecule?
Answer: 430 ng·h/mL

Question: What about the AUC(0-t) ([3]; PO, 10 mg/kg) of the same molecule?
Answer: 407 ng·h/mL

Question: What about the CL/F ([3]; PO, 10 mg/kg) of the same molecule?
Answer: 401 mL/min/kg

Question: What about the Cmax ([3]; PO, 10 mg/kg) of the same molecule?
Answer: 113 ng/mL

Question: And the Tmax ([3]; PO, 10 mg/kg)?
Answer: 1.5 h

Question: What about the half-life ([3]; PO, 10 mg/kg) of the same molecule?
Answer: 1.67 h

Question: And the Vd ([3]; IP, 5 mg/kg)?
Answer: 17.9 L/kg

Question: What about the Vd ([3]; PO, 10 mg/kg) of the same molecule?
Answer: 57.4 L/kg

Question: What about the inhibition at 15 min, 10 µM [4] of the same molecule?
Answer: 78%
